Experiments:
Assay type in all cases: biochemical
JIK = molecular target: T1, JIK (Homo sapiens, UniProt Q9H2K8); assay: JIK Luciferase-Coupled Chemiluminescent Kinase assay (LCCA); settings: 2 μM ATP, 10 μM MBP, 6 nM JIK, 2 hours; read-out: JIK inhibition IC50
T1 construct: 6 nM JIK (baculovirus expressed human KIAA 1361 kinase domain2-318); made in house
T1 sequence (Q9H2K8 2-318): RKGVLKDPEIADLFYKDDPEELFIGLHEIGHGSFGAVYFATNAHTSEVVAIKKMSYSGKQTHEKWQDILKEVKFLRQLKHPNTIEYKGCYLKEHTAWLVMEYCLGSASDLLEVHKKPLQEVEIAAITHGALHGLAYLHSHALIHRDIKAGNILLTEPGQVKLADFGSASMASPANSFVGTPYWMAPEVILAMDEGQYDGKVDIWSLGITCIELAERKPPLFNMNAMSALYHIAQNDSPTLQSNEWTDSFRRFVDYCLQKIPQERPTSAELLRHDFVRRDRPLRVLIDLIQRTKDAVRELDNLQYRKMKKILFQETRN
Protocol: (§1) Kinase activity and compound inhibition are investigated using one or more of the three assay formats described below. The ATP concentrations for each assay are selected to be close to the Michaelis-Menten constant (KM) for each individual kinase. Dose-response experiments are performed at 10 different inhibitor concentrations in a 384-well plate format. The data are fitted to four-parameter equation (2) below; where Y is the observed signal, X is the inhibitor concentration, Min is the background signal in the absence of enzyme (0% enzyme activity), Max is the signal in the absence of inhibitor (100% enzyme activity), IC50 is the inhibitor concentration at 50% enzyme inhibition and H represents the empirical Hill's slope to measure the cooperativity. Typically H is close to unity. Y=Min+(Max−Min)/(1+(X/IC50)ˆH) Equation (2) KIAA 1361 Assay: […]
(§2) JIK biochemical activity was assessed using a Luciferase-Coupled Chemiluminescent Kinase assay (LCCA) format. Kinase activity was measured as the percent ATP remaining following the kinase reaction. Remaining ATP was detected by luciferase-luciferin-coupled chemiluminescence. Specifically, the reaction was initiated by mixing test compounds, 2 μM ATP, 10 μM MBP and 6 nM JIK (baculovirus expressed human KIAA 1361 kinase domain2-318) in a 20 uL assay buffer (20 mM Tris-HCL pH7.5, 10 mM MgCl2, 0.02% Triton X-100, 100 mM DTT, 2 mM MnCl2). The mixture is incubated at ambient temperature for 2 hours after which 20 uL luciferase-luciferin mix is added and the chemiluminescent signal read using a Wallac Victor^2 reader. The luciferase-luciferin mix consists of 50 mM HEPES, pH 7.8, 8.5 ug/mL oxalic acid (pH 7.8), 5 (or 50) mM DTT, 0.4% Triton X-100, 0.25 mg/mL coenzyme A, 63 uM AMP, 28 ug/mL luciferin and 40,000 units of light/mL luciferase.

[1] = molecular target: T2, KIAA 1361 (baculovirus expressed human KIAA 1361 kinase domain 2-322) (Homo sapiens, UniProt Q7L7X3); assay: KIAA 1361 Luciferase-Coupled Chemiluminescent Kinase assay (LCCA); settings: 2 μM ATP, 10 μM MBP, 12 nM KIAA 1361, 2 hours; read-out: KIAA1361 inhibition IC50
T2 construct: human KIAA 1361 kinase domain 2-322; made in house
T2 sequence (Q7L7X3 2-322): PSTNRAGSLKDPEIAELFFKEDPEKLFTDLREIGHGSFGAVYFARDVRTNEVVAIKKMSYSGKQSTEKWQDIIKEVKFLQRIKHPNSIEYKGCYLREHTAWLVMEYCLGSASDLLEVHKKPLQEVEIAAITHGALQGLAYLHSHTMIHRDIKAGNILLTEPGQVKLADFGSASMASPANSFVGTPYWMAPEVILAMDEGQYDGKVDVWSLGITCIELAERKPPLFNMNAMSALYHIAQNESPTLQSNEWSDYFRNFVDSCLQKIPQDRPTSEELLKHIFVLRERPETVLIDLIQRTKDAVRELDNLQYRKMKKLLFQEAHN
Protocol: as §1
as §2, with “KIAA 1361 biochemical” for “JIK biochemical”, “and 12” for “and 6”, “nM KIAA 1361” for “nM JIK”, “kinase domain 2-322)” for “kinase domain2-318)”

TAO = molecular target: T3, TAO (Homo sapiens, UniProt Q9UL54); assay: TAO Luciferase-Coupled Chemiluminescent Kinase assay (LCCA); settings: 2 μM ATP, 10 μM MBP, 12 nM TAO, 2 hours; read-out: TAO inhibition IC50
T3 sequence (Q9UL54 1-1235): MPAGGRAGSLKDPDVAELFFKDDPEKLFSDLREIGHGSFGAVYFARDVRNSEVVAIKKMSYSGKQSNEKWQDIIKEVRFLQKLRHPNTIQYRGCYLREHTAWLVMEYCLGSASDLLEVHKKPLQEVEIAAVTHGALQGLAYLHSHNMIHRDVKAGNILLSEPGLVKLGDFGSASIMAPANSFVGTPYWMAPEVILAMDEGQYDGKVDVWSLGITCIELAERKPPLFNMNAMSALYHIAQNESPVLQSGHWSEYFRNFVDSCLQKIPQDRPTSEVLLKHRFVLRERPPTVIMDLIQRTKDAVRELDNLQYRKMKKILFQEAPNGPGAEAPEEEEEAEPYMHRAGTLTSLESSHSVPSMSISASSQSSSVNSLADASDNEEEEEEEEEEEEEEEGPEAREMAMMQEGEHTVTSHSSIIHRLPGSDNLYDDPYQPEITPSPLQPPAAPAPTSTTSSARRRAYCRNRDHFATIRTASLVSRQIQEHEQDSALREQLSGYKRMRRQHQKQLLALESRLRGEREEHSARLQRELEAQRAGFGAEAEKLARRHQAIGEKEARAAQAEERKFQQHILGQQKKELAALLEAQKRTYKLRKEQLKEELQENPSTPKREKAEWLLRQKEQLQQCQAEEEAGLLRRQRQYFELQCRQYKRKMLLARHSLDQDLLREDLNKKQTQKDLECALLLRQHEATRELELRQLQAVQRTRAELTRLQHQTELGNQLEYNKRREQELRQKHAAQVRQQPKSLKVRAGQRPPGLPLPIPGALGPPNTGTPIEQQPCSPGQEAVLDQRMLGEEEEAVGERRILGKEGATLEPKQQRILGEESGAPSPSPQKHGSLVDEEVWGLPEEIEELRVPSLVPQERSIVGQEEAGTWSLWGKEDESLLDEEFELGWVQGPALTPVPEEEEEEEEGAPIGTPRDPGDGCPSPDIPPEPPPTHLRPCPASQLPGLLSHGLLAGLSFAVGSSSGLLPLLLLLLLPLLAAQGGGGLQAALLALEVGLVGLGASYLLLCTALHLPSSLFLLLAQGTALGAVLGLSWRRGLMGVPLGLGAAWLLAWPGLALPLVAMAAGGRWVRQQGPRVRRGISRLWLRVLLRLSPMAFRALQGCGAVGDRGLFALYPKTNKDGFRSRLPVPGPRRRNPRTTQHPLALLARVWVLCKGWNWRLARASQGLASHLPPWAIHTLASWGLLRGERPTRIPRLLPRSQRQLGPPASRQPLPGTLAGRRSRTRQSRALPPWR
Protocol: as §1
as §2, with “TAO biochemical” for “JIK biochemical”, “and 12” for “and 6”, “nM TAO” for “nM JIK”, “kinase domain 2-322)” for “kinase domain2-318)”, “mM […],” for “mM HEPES,”, “[…]” for “0.25 mg/mL”

Row | SMILES | IC50 (JIK) [nM] | IC50 [1] [nM] | IC50 (TAO) [nM]
1 | O=C(NC(C(=O)NC1CCCc2ccccc21)c1cccnc1)c1ccc(/N=N/c2ccccc2)cc1 (stereo not drawn) [Entry 26, N-[2-oxo-1-pyridin-3-yl-2-(1,2,3,4-tetrahydronaphthalen-1-ylamino)ethyl]-4-[(E)-phenyldiazenyl]benzamide] | 50 to 500 | 500 to 5000 | 500 to 5000
2 | CCCCOc1ccc(C(=O)NCC(=O)NC2CCCc3ccccc32)cc1 (stereo not drawn) [Entry 27, 4-(butyloxy)-N-[2-oxo-2-(1,2,3,4-tetrahydronaphthalen-1-ylamino)ethyl]benzamide] | 50 to 500 | 500 to 5000 | 500 to 5000
3 | COc1cccc(OCC(=O)NCC(=O)NC2CCCc3ccccc32)c1 (stereo not drawn) [Entry 28, N˜2˜-({[3-(methyloxy)phenyl]oxy}acetyl)-N-(1,2,3,4-tetrahydronaphthalen-1-yl)glycinamide] | 50 to 500 | 500 to 5000 | 500 to 5000
4 | CCCCc1ccc(C(=O)NCC(=O)NC2CCCc3ccccc32)cc1 (stereo not drawn) [Entry 29, 4-butyl-N-[2-oxo-2-(1,2,3,4-tetrahydronaphthalen-1-ylamino)ethyl]benzamide] | 500 to 5000 | 500 to 5000 | > 5000
5 | COc1ccc(/C=C/C(=O)N[C@@H](COCc2ccccc2)C(=O)NC(c2ccccc2)c2ccccc2)cc1OC [Entry 30, N˜2˜-{(2E)-3-[3,4-bis(methyloxy)phenyl]prop-2-enoyl}-N-(diphenylmethyl)-O-(phenylmethyl)serinamide] | 50 to 500 | 500 to 5000 | > 5000
6 | O=C(COc1ccc(OC(F)(F)F)cc1)NCC(=O)NC1CCCc2ccccc21 (stereo not drawn) [Entry 31, N-(1,2,3,4-tetrahydronaphthalen-1-yl)-N˜2˜-[({4-[(trifluoromethyl)oxy]phenyl}oxy)acetyl]glycinamide] | 500 to 5000 | 500 to 5000 | 500 to 5000
7 | CC(C)CC(NC(=O)c1ccc(-c2ccccc2)cc1)C(=O)NC1CCCc2ccccc21 (stereo not drawn) [Entry 32, N-{3-methyl-1-[(1,2,3,4-tetrahydronaphthalen-1-ylamino)carbonyl]butyl}biphenyl-4-carboxamide] | 500 to 5000 | 500 to 5000 | > 5000
8 | O=C(COc1ccc(Cl)cc1)NCC(=O)NC1CCCc2ccccc21 (stereo not drawn) [Entry 34, N˜2˜-{[(4-chlorophenyl)oxy]acetyl}-N-(1,2,3,4-tetrahydronaphthalen-1-yl)glycinamide] | 500 to 5000 | > 5000 | > 5000
9 | CCCCCOc1ccc(C(=O)NC(CC(C)C)C(=O)NC2CCCc3ccccc32)cc1 (stereo not drawn) [Entry 35, N˜2˜-{[4-(pentyloxy)phenyl]carbonyl}-N(1,2,3,4-tetrahydronaphthalen-1-yl)leucinamide] | 50 to 500 | > 5000 | 500 to 5000
10 | CCCCCCOc1ccc(C(=O)NC(C)C(=O)NC2CCc3ccccc3C2)cc1 (stereo not drawn) [Entry 36, 4-(hexyloxy)-N-[1-methyl-2-oxo-2-(1,2,3,4-tetrahydronaphthalen-2-ylamino)ethyl]benzamide] | 50 to 500 | > 5000 | > 5000
11 | COc1ccc2nc(NC(=O)COC(=O)CC(NC(=O)c3ccccc3)c3ccccc3)sc2c1 (stereo not drawn) [Entry 37, 2-{[6-(methyloxy)-1,3-benzothiazol-2-yl]amino}-2-oxoethyl 3-phenyl-3-[(phenylcarbonyl)amino]propanoate] | < 50 | < 50 | < 50
12 | O=C(COc1ccc(-c2nccc(-c3ccccn3)n2)cc1)NCc1ccc(Cl)c(Cl)c1 [Entry 38, N-[(3,4-dichlorophenyl)methyl]-2-{[4-(4-pyridin-2-ylpyrimidin-2-yl)phenyl]oxy]acetamide] | < 50 | < 50 | 50 to 500
13 | CCOCCCn1c(=S)[nH]c2cc(C(=O)NCC3COc4ccccc4O3)ccc2c1=O (stereo not drawn) [Entry 39, N-(2,3-dihydro-1,4-benzodioxin-2-ylmethyl)-3-[3-(ethyloxy)propyl]-4-oxo-2-thioxo-1,2,3,4-tetrahydroquinazoline-7-carboxamide] | 50 to 500 | 50 to 500 | 50 to 500

Reference: patent US20070208166A1, “Tao Kinase Modulators And Method Of Use” (Exelixis, Inc., priority 2003, published 2007)
